Holding throughout (format): cell-based
The subject of experiment [1] is Cryptococcus gattii ATCC 32608. The experiment can be described thus: Anti-fungal broth microdilution (MIC), fungus J. The conditions noted are these: yeast protocol, more than 80% inhibition, 48 h. In outline: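 Broth microdilution per NCCLS M27-A (yeasts) and M38-A (filamentous fungi), compounds tested from 64 down to 0.125 μg/ml against 10^6 CFU/ml inocula. For filamentous fungi, MIC read after 48 to 72 h at 35° C as the concentration giving more than 50% visible growth inhibition.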

In experiment [2] the test system is SKOV-3 (human ovary adenocarcinoma) cells. The experiment is described as follows: XTT cytotoxicity assay, SKOV-3 cells. In outline:
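Exponentially growing SKOV-3 cells recovered 24 h after plating, then received freshly diluted compounds for 2 days of continuous exposure. Viability was read by formazan formation after 3 h with XTT-PMS at 37° C., 5% CO2. IC50 came from inhibition curves.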

In experiment [3] the test system is Streptococcus pneumoniae DSM 20566 (ATCC 33400). The experiment is described as follows: Anti-bacterial bouillon microdilution assay (MIC), bacterium A. The conditions noted are these: Streptococcus pneumoniae DSM 20566, 24 h. As to the method: Selected compounds of the invention were tested in a bouillon microdilution assay method according to the DIN 58940 (www.din.de) guidelines for determination of susceptibility of bacterial strains with regard to cell growth inhibition. The assay method quantifies bacterial cell growth which corresponds to the turbidity of the liquid culture medium by photometric measurement carried out at 595 nm.
The method of MIC determination was performed according to DIN 58940-5. The volumina were adapted according to the microdilution method as described in DIN 58940-7 guideline.
Dependent on water solubility, compounds of the invention were dissolved either in water or ethanol in a concentration of 10 mg/ml. Subsequently, the stock was further diluted in water to a concentration of 512 μg/ml. The following serial dilutions (factor 2) were performed in water resulting in the following […] testing concentrations: 256 μg/ml, 128 μg/ml, 64 μg/ml, 32 μg/ml, 16 μg/ml, 8 μg/ml, 4 μg/ml, 2 μg/ml, 1 μg/ml, 0.5 μg/ml, 0.25 μg/ml and 0.125 μg/ml. Diluted compounds of the invention were transferred in 100 μl volume to the microtiter plate wells.
Pre-cultures of bacteria were grown in appropriate liquid media (refer to ATCC webpage, www.atcc.org) and afterwards were inoculated in corresponding liquid medium. 100 μl of the inoculums [adjusted to an amount of app. 1×10^6 microorganisms per ml (range of 10^5-10^8 microorganisms per ml)] were added to each of the testing compound concentrations and cultivated under the appropriate conditions.
Before and after incubation, bacterial growth was determined by photometric analysis against a positive control containing growing bacteria without compound and a sterile/negative control containing only the medium.
For orientation: Broth dilution looks for growth in wells or tubes with falling amounts of substance.

Experiment [4] has as its system Moraxella catarrhalis DMS 11994 (ATCC 43617). The experiment can be described thus: Anti-bacterial bouillon microdilution assay (MIC), bacterium D. In outline: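 Broth microdilution MIC per DIN 58940-5/-7. Twofold compound dilutions in water spanned 256 to 0.125 μg/ml in the test concentration series, with inocula of about 1×10^6 organisms/ml in strain-appropriate media. Growth was read as turbidity at 595 nm before and after incubation, against growth and sterile controls.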

Experiment [5] has as its system Trypanosoma cruzi (Tulahuan-LACZ amstigotes in PEM). The experiment can be described thus: In vitro drug activity assay, protozoon A. The conditions noted are these: amastigotes in murine peritoneal macrophages, 3 days. On the procedure: In vitro activity of selected compounds of the invention against different protozoa was assessed as follows.
Murine (CD1) peritoneal macrophages were harvested 24 hours after starch induction and dispensed into 96-well plates at a concentration of 4×10^5 mL. After 24 hours, the cells were infected with Trypanosoma cruzi Tulahuan LAC-Z amastigotes (grown and cultured according to Buckner et al., Infection and Immunity 1999, 67(1): 403-409). 24 hours later, the infected cells were exposed to the test compounds (compounds of the invention as well as known prior art compounds) for 3 days and 50 μL of 500 μM CPRG-1% Nonidet P-40 was added to each well. The plates were read after 2 to 5 hours at 570 nm (Buckner et al., Antimicrobial Agents and Chemotherapy 1996, 40(11): 2592-2597). ED50 values were calculated with Msxlfit (IDBS).
The following protozoa were assessed: • A) Trypanosoma cruzi (Tulahuan-LACZ amstigotes in PEM, Lorente S O et al., Antimicrobial agents and chemotherapy 2004, 48(8): 2937-2950; Buckner et al., Infection and Immunity 1999, 67(1): 403-409; Buckner et al., Antimicrobial Agents and Chemotherapy 1996, 40(11): 2592-2597) • B) Trypanosoma brucei rhodesiense (strain STIB900, Lorente S O et al., Antimicrobial agents and chemotherapy 2004, 48(8): 2937-2950; Habtemariam S, BMC Pharmacology 2003, 3:6) • C) Plasmodium falciparum (strain K1, Korsinczky M et al., Antimicrobial agents and chemotherapy 2000, 44(8): 2100-2108; Thaitong S and Beale G H, Trans. R. Soc. Trop. Med. Hyg. 1981, 75: 271-273; Trager W and Jensen J B, Science 1976, 193: 673-675) • D) Plasmodium faiciparum (strain 3D7, Mu et al., PLoS Biology 2005, 3(10): e335)

Values after ≈ are worked out from the molar mass of the structure shown.

The MIC is the least concentration at which growth counts as inhibited.

For `CCCCCCCCCCCCCCCCOP(=O)([O-])OCC[N+]1(C)CCCCC1` [Compound 2, Phosphoric acid hexadecyl ester 2-(1-methyl-piperidin-1-yl)-ethyl ester], the “MIC, fungus J” value in experiment [1] came to 0.75 µg/mL (≈ 1.68 µM). Also, the “SKOV-3 % INH [100 μM]” value in experiment [2] (second set of experiments) amounted to 19.5%. Besides, the “MIC, bacterium A” value in experiment [3] came to 8 µg/mL (≈ 17.9 µM). Moreover, in experiment [4] (24 h), the “MIC, bacterium D” value was 4 µg/mL (≈ 8.94 µM). Moreover, the “ED50 (μg/mL), protozoon A” value in experiment [5] came to 0.50 µg/mL (≈ 1.12 µM).

For the compound `CCCCCCCCCCCCCCCCOP(=O)([O-])OCC[N+](C)(C)C` [miltefosine, hexadecylphosphocholine, reference compound], in experiment [2] (Homo sapiens, SK-OV-3, second set of experiments, read-out: SKOV-3 % INH [100 μM]), the inhibition at 100 µM stood at 74.7%. Moreover, the MIC is 128 µg/mL (≈ 314 µM) in experiment [3] and 16 µg/mL (≈ 39.3 µM) in experiment [4] (ATCC43617, 24 h). Further, the “ED50 (μg/mL), protozoon A” value in experiment [5] was found to be 0.63 µg/mL (≈ 1.55 µM).
